# In US20210115018A1, “PIPERIDINE COMPOUNDS AS COVALENT MENIN INHIBITORS” (THE REGENTS OF THE UNIVERSITY OF MICHIGAN, priority 2018, published 2021):
# Target: T1, menin protein (Homo sapiens, UniProt O00255)
# T1 sequence (O00255 1-610): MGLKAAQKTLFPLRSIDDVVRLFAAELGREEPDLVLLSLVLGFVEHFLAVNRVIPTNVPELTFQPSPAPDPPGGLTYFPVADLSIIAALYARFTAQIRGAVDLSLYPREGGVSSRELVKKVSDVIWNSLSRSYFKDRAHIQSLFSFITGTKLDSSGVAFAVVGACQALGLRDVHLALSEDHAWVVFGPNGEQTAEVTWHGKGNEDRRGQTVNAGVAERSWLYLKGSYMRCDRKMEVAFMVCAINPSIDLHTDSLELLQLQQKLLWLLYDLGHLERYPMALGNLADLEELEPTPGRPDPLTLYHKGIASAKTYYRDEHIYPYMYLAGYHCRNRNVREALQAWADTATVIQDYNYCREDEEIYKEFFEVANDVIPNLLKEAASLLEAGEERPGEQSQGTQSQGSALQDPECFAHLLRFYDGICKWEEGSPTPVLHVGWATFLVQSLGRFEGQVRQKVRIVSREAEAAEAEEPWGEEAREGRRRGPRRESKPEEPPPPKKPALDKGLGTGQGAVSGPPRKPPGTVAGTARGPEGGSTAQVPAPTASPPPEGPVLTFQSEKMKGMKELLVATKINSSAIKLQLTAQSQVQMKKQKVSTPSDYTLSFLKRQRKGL
# Test: Fluorescence polarization (FP) competitive binding assay, menin binding affinity
# Settings: FP competition with FAM-MM2 probe 2 nM, menin 4 nM, 30 minutes room temperature
# Description: A fluorescence polarization (FP) competitive binding assay was used to determine the binding affinities of representative menin inhibitors. A FAM labeled fluorescent probe was designed and synthesized based on a MLL1 peptide (FAM-MM2). Equilibrium dissociation constant (Kd) value of FAM-MM2 to menin protein was determined from protein saturation experiments by monitoring the total fluorescence polarization of mixtures composed with the fluorescent probe at a fixed concentration and the protein with increasing concentrations up to full saturation. Serial dilutions of the protein were mixed with FAM-MM2 to a final volume of 200 μl in the assay buffer (PBS with 0.02% Bovine γ-Globulin and 4% DMSO. 0.01% Triton X-100 was added right before assays). Final FAM-MM2 concentration was 2 nM. Plates were incubated at room temperature for 30 minutes with gentle shaking to assure equilibrium. FP values in millipolarization units (mP) were measured using the Infinite M-1000 plate reader (Tecan U.S., Research Triangle Park, N.C.) in Microfluor 1 96-well, black, v-bottom plates (Thermo Scientific, Waltham, Mass.) at an excitation wavelength of 485 nm and an emission wavelength of 530 nm.
# The IC50 of representative Compounds of the Disclosure, see Table 3, were determined in a competitive binding experiment. Mixtures of 5 μl of the tested compounds in DMSO and 195 μl of preincubated protein/probe complex solution in the assay buffer were added into assay plates which were incubated at room temperature for 30 minutes with gentle shaking. Final concentration of the menin protein was 4 nM, and final probe concentration is 2 nM. Negative controls containing protein/probe complex only (equivalent to 0% inhibition), and positive controls containing only free probes (equivalent to 100% inhibition), were included in each assay plate. FP values were measured as described above. IC50 values were determined by nonlinear regression fitting of the competition curves.
row,Compound,IC50 [nM]
1,C=CC(=O)N1CC2CC1CN2S(=O)(=O)c1ccc(N2CC(CN3CCC([C@@](CN4CCC4)(c4cccc(F)c4)[C@H]4CCC[C@@H]4NC(=O)OC)CC3)(OC)C2)cc1 (stereo partly drawn) [compound 240],4
2,"C=C(CN1CCCCC1)C(=O)N1CC(S(=O)(=O)c2ccc(N3CC(CN4CCC([C@@](C#N)(c5cccc(F)c5)[C@H]5CCC[C@@H]5NC(=O)OC)CC4)C3)cc2)C1 [Cpd. No. 29, methyl ((1S,2R)-2-((S)-cyano(3-fluorophenyl)(1-((1-(4-((1-(2-(piperidin-1-ylmethyl)acryloyl)azetidin-3-yl)sulfonyl)phenyl)azetidin-3-yl)methyl)piperidin-4-yl)methyl)cyclopentyl)carbamate]",2
3,"C=CC(=O)Nc1cccc(S(=O)(=O)c2ccc(N3CC(CN4CCC([C@@](CN5CCC5)(c5cccc(F)c5)[C@H]5CCC[C@@H]5NC(=O)OC)CC4)C3)cc2)c1 [Cpd. No. 32, methyl ((1S,2R)-2-((S)-1-(1-((1-(4-((3-acrylamidophenyl)sulfonyl)phenyl)azetidin-3-yl)methyl)piperidin-4-yl)-2-(azetidin-1-yl)-1-(3-fluorophenyl)ethyl)cyclopentyl)carbamate]",2
4,C=CC(=O)N1CCCC[C@H](S(=O)(=O)c2ccc(N3CC(CN4CCC([C@@](CN5CCC5)(c5cccc(F)c5)[C@H]5CCC[C@@H]5NC(=O)OC)CC4)(OC)C3)cc2)C1 [compound 234],4
5,"C#CC(=O)N1CC(S(=O)(=O)c2ccc(N3CC(CN4CCC([C@@](CN5CCC5)(c5cccc(F)c5)[C@H]5CCC[C@@H]5NC(=O)OC)CC4)C3)cc2)C1 [Cpd. No. 15, methyl ((1S,2R)-2-((S)-2-(azetidin-1-yl)-1-(3-fluorophenyl)-1-(1-((1-(4-((1-propioloylazetidin-3-yl)sulfonyl)phenyl)azetidin-3-yl)methyl)piperidin-4-yl)ethyl)cyclopentyl)carbamate]",3
6,"C=CC(=O)N1CC(S(=O)(=O)c2ccc(N3CC(CN4CCC([C@@](CN(C)C)(c5cccc(F)c5)[C@H]5CCC[C@@H]5NC(=O)OC)CC4)C3)cc2)C1 [Cpd. No. 1, methyl ((1S,2R)-2-((S)-1-(1-((1-(4-((1-acryloylazetidin-3-yl)sulfonyl)phenyl)azetidin-3-yl)methyl)piperidin-4-yl)-2-(dimethylamino)-1-(3-fluorophenyl)ethyl)cyclopentyl)carbamate]",2

# The remaining compounds from weak to strong by IC50, led by results:
row,IC50 [nM],Compound
1,7,C=CC(=O)N1CCN(C(C)=O)[C@H](CS(=O)(=O)c2ccc(N3CC(CN4CCC([C@@](CN5CCC5)(c5cccc(F)c5)[C@H]5CCC[C@@H]5NC(=O)OC)CC4)(OC)C3)cc2)C1 [compound 238]
2,4,"C=C(CN1CCOCC1)C(=O)N1CC(S(=O)(=O)c2ccc(N3CC(CN4CCC([C@](CN5CCC5)(c5cccc(F)c5)[C@H]5CCC[C@@H]5NC(=O)OC)CC4)C3)cc2)C1 [Cpd. No. 27, methyl ((1S,2R)-2-((R)-2-(azetidin-1-yl)-1-(3-fluorophenyl)-1-(1-((1-(4-((1-(2-(morpholinomethyl)acryloyl)azetidin-3-yl)sulfonyl)phenyl)azetidin-3-yl)methyl)piperidin-4-yl)ethyl)cyclopentyl)carbamate]"
3,2,"COC(=O)N[C@H]1CCC[C@@H]1[C@](CN1CCCCC1)(c1cccc(F)c1)C1CCN(CC2CN(c3ccc(S(=O)(=O)C4CN(C(=O)/C=C/CN(C)C)C4)cc3)C2)CC1 [Cpd. No. 4, methyl ((1S,2R)-2-((S)-1-(1-((1-(4-((1-((E)-4-(dimethylamino)but-2-enoyl)azetidin-3-yl)sulfonyl)phenyl)azetidin-3-yl)methyl)piperidin-4-yl)-1-(3-fluorophenyl)-2-(piperidin-1-yl)ethyl)cyclopentyl)carbamate]"
